Tests used:
NPPFV cells = test: Ca2+ imaging (Fura-2) of NPPFV cells after stimulation with neurotransmitters; type: cell-based, human; details: for percentage of responding NPPFV cells: neurotransmitter 0.1 mM, mean±SEM; for elicited [Ca2+]i of responding NPPFV cells: undifferentiated and differentiated NPPFV cells, result in words
Method: Cells were incubated at 37° C. for 30 min in X-vivo medium (containing 3% FBS, 5 μM Fura-2 tetra-acetoxymethyl ester, 8 μM pluronic acid F127 and 250 μM sulfinpyrazone). Cells were washed in modified Mg^2+-free Hank's balanced salt solution (HBSS, 2.6 mM CaCl2, 15 mM HEPES [pH 7.4] and 250 μM sulfinpyrazone). Five types of neurotransmitters, γ-aminobutyric acid (GABA), glutamate (Glu), glycine (Gly), dopamine (Dopa) and acetylcholine (Ach) were dissolved in modified HBSS at a concentration of 0.1 mM. The largest dynamic range for Ca^2+-dependent fluorescence signals is obtained by excitation at 340 nm and 380 nm, and detecting their ratio of emission fluorescence intensities at around 510 nm. From this ratio, the concentration of intracellular Ca^2+ ([Ca^2+]i) can be estimated, using dissociation constants that are derived from calibration curves. By using the ratio of fluorescence intensities produced by excitation at two wave lengths, factors such as uneven dye distribution and photo bleaching are minimized ([…] Ratio Imaging System, Cincinnati, Ohio). The change of [Ca^2+]i was calculated from the difference between the peak Ca^2+ concentration evoked by each agonist and the control value of HBSS (before the addition of agonist). At least 80 cells were selected for analyzing the change of [Ca^2+]i evoked by each agonist, averaged over three repetitions.

B6 mouse RGCs [1] = test: RGC survival assay (LIVE/DEAD) in co-culture with transfected hNPPFV cells; type: cell-based; details: added to hNPPFV^igf-1-tdTomato co-culture; H-1356 40 μg/ml, NBI-31772 10 μM, IGF-1R antibody 1:250; words
Method: (§1) P0 B6 mice were euthanized with CO2 and the retinas were dissected out from the eyecups in cold Hank's buffer (Life Technologies) containing 1× Penicillin-Streptomycin-Glutamine (Life Technologies). Retinas were digested in 20 U/ml papain solution containing 100 U/ml DNaseI at 37° C. for 5-15 min; the reaction was stopped with 5 mg/ml ovomucoid protease inhibitor containing 5 mg/ml albumin. Retinas were gently triturated to obtain a single cell suspension, and cells were washed once and re-suspended in 800 μl washing buffer (0.5% BSA, 2 mM EDTA in 1×PBS). RGCs were isolated using Thy1.2 (CD90.2) microbeads and MACS® magnetic separation system (Miltenyi Biotech) following the manufacturer's instructions. […]
(§2) Co-culture inserts and culture media were removed after 3 days; RGCs were washed with 1×PBS and stained with CalceinAM and EthD-1 (LIVE/DEAD® Viability/Cytotoxicity kit, Life Technologies) for 40 min at room temperature. Images of 4-6 view fields were randomly selected throughout each well under an Olympus inverted fluorescence microscope. Live and dead cells were counted using ImageJ 1.46 (National Institutes of Health, Bethesda, Md.) and survival rates were calculated as live cells/live+dead cells×100%. […] Images were acquired with an Olympus inverted fluorescence microscope. Neurite lengths were measured using ImageJ.

B6 mouse RGCs [2] = test: Neurite outgrowth assay of RGCs in co-culture with transfected hNPPFV cells; type: cell-based; details: added to hNPPFV^igf-1-tdTomato co-culture; H-1356 40 μg/ml, NBI-31772 10 μM, IGF-1R antibody 1:250; words
Method: as §1, §2

[3] = system: retina of adult C57BL/6 mice; test: Inner retinal (intravitreal) transplantation into adult C57BL/6 mice; type: in vivo, mouse; details: intraperitoneal RA 2 mg/kg·day, 3 weeks; result in words
Text: For studying their potential for inner retinal transplantation, NPPFV cells or hRPCs were intravitreally injected to 20 and 10 C57BL/6 mice, respectively. Animals were maintained in standard animal facility. To trace the transplanted cells, NPPFV cells and hRPCs were infected with an AAV2 or retrovirus vector harboring EGFP (HGTI, Boston, Mass.) following the instructions of each transfection kit, respectively. Mice (4-6 weeks of age) were deeply anesthetized with an intraperitoneal injection of ketamine (120 mg/kg) and xylazine (20 mg/kg) and pupils were dilated with 0.5% topical tropicamide. Dissociated GFP-positive cells (1×10^5 cells/2 μl) were suspended in HBSS […] of the eye through a glass micropipette connected to a 10 μl Hamilton syringe via polyethylene tubing. Sham-injected mice received HBSS without cells. All experimental animals received injection in one eye and the other eye was used as an untreated control. […] Anti-GFP antibody (1:100, ABCAM, USA) was used to enhance the fluorescence of prelabled-GFP, while anti-β-III-tubulin (1:500, Sigma, USA), anti-GFAP (1:300, Sigma, USA) and anti-synaptophysin (1:100, DAKO, USA) antibodies helped to assess the differentiation of the transplanted cells. […] Every 10th serial section was counted, measuring […] in thickness as to avoid redundancy of cell counts.

[4] = biological target: IGF-1 receptor on B6 mouse retinal ganglion cells (mouse) (UniProt Q60751); test: cell-based or functional assay
Sequence of UniProt Q60751 (Q60751 31-1373): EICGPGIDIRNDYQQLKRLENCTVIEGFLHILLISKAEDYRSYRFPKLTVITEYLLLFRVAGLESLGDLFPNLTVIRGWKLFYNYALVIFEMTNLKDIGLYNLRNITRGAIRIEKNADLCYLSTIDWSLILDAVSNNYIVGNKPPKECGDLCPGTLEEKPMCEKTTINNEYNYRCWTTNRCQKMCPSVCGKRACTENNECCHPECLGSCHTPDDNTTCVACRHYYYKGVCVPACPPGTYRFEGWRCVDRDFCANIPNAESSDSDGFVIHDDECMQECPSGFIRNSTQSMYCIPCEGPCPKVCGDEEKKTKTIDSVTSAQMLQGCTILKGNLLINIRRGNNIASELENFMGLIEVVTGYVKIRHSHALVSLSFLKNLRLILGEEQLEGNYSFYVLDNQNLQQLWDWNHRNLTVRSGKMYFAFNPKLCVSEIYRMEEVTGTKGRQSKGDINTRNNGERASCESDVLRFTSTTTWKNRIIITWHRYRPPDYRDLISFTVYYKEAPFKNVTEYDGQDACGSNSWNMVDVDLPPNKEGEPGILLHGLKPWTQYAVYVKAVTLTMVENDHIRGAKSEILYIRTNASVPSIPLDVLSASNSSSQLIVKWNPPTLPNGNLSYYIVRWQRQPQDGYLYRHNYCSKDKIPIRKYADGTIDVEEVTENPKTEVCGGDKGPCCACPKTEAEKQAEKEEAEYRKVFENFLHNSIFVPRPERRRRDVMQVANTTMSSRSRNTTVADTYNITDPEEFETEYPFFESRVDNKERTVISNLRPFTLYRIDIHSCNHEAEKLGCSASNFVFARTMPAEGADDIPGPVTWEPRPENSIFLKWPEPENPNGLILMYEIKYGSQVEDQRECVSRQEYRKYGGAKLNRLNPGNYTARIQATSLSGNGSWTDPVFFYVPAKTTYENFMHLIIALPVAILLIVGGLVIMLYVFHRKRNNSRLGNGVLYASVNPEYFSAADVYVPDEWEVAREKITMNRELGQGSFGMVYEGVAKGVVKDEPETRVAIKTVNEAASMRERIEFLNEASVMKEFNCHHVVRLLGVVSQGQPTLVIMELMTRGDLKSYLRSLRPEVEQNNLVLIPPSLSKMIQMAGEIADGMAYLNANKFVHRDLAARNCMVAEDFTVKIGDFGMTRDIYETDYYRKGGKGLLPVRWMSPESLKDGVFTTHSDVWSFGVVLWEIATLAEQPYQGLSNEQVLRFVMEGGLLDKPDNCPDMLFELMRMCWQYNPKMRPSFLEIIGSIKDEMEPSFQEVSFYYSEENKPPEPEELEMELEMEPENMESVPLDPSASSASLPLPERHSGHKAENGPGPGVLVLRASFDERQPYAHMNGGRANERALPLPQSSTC

Row | Compound | percentage of responding NPPFV cells (NPPFV cells; differentiated NPPFV cells) [%] | percentage of responding NPPFV cells (NPPFV cells; undifferentiated NPPFV cells) [%] | elicited [Ca2+]i of responding NPPFV cells (NPPFV cells) | also measured
1 | CC(=O)OCC[N+](C)(C)C [Ach, acetylcholine] | 8.23±5.41 | 10.96±8.12 |  | 
2 | NCCc1ccc(O)c(O)c1 [Dopa, dopamine] | 7.89±9.18 | 6.41±7.14 | quite low | 
3 | NCCCC(=O)O [GABA, γ-aminobutyric acid] | 12.99±4.86 | 14.94±11.73 | quite low | 
4 | N[C@@H](CCC(=O)O)C(=O)O [Glu, glutamate] | 87.88±4.97 | 48.98±11.67 | significant increase | 
5 | NCC(=O)O [Gly, glycine] | 21.05±9.72 | 16.67±10.62 | quite low | 
6 | O=C(O)c1cc2cc(O)c(O)cc2c(C(=O)c2ccc(O)c(O)c2)n1 [NBI-31772] |  |  |  | effect on IGF-1-tdTomato-mediated RGC survival (B6 mouse RGCs [1]): completely eliminated the effects; effect on IGF-1-tdTomato-mediated neurite outgrowth (B6 mouse RGCs [2]): completely eliminated the effects
7 | CC1=C(/C=C/C(C)=C/C=C/C(C)=C/C(=O)O)C(C)(C)CCC1 [RA, all-trans-retinoic acid] |  |  |  | differentiation of engrafted NPPFV cells into retinal ganglion-like neurons [3]: significantly increases the differentiation of engrafts into retinal ganglion-like mature neurons
8 | IGF-1-tdTomato fusion protein (from UniProt P05017 49-118) (ligand) |  |  |  | average neurite length of RGCs co-cultured with hNPPFV^igf-1-tdTomato cells [4]: 93 µm; neurites per RGC co-cultured with hNPPFV^igf-1-tdTomato cells (neurites/cell) [4]: 2; survival rate of RGCs co-cultured with hNPPFV^igf-1-tdTomato cells [4]: 22%

— patent US20150125432A1, “Human Persistent Fetal Vasculature Neural Progenitors for Transplantation in the Inner Retina” (The Schepens Eye Research Institute, Inc., priority 2012, published 2015)
